Results reported in US20230263822A1, “MODULATION OF FACTOR 11 EXPRESSION” (Ionis Pharmaceuticals, Inc., priority 2008, published 2023).

Legend:
Format in all cases: in vivo, BALB/c mice
Factor 11 mRNA [1] = assay: Factor 11 mRNA in liver, FeCl3 induced venous thrombosis model vs Apixaban (Example 14); details: for % inhibition of Factor 11 mRNA in liver relative to PBS control: FeCl3 VT model
Protocol: ISIS 404071 and Apixaban were evaluated in the FeCl3 induced VT mouse model. […] Two days after receiving the last dose of ISIS 404071, mice were anesthetized with 150 mg/kg ketamine mixed with 10 mg/kg xylazine administered by intraperitoneal injection. […] Twenty minutes after receiving Apixaban, mice were anesthetized with 150 mg/kg ketamine mixed with 10 mg/kg xylazine administered by intraperitoneal injection. […] Two days after the last dose of PBS, mice in both groups were anesthetized with 150 mg/kg ketamine mixed with 10 mg/kg xylazine administered by intraperitoneal injection. Thrombus formation was induced with FeCl3 in all of the mice except the first control group.
(§1) In mice undergoing FeCl3 treatment, thrombus formation was induced by applying a piece of filter paper (2×4 mm) pre-saturated with 10% FeCl3 solution directly on the vena cava. After 3 minutes of exposure, the filter paper was removed. Thirty minutes after the filter paper application, a fixed length of the vein containing the thrombus was dissected out for platelet analysis. Liver was collected for RNA analysis.
RNA was extracted from liver tissue for real-time PCR analysis of Factor 11. Results are presented as percent inhibition of Factor 11, relative to PBS control.

blood coagulation = assay: Sense-oligonucleotide antidote: aPTT (Example 23); details: ISIS 404071 40 mg/kg s.c. twice a week for three weeks, ISIS 418026 90 mg/kg where given
Protocol: The effect of the specific sense oligonucleotide to ISIS 404071 as an antidote was tested in BALB/c mice. In a first cohort, ISIS 404071 was administered subcutaneously to BALB/c mice twice a week for three weeks at a dose of 40 mg/kg. In a second cohort, ISIS 404057 was administered subcutaneously to BALB/c mice twice a week for three weeks at a dose of 40 mg/kg. The ISIS 404071 specific antidote, ISIS 418026 ([…]; complementary to ISIS 404071), incorporated herein as SEQ ID NO: 13, was administered to both cohorts subcutaneously in a single injection of 90 mg/kg 48 hours after the final treatment of ISIS 404071 or 404057. In a third cohort, ISIS 404071 was administered subcutaneously to BALB/c mice twice a week for three weeks at a dose of 40 mg/kg. Following the last treatment of ISIS 404071, mice were injected subcutaneously injected with PBS. In a fourth cohort, ISIS 404057 was administered subcutaneously to BALB/c mice twice a week for three weeks at a dose of 40 mg/kg. Following the last treatment of ISIS 404057, mice were injected subcutaneously injected with PBS. Following antidote administration, a set of 4 mice from each cohort were sacrificed at 12 hours, 1 day, 2 days, 3 days, 7 days, and 14 days. Whole liver was collected for RNA analysis and PPP was collected for aPTT analysis.

Factor 11 mRNA [2] = assay: Factor 11 mRNA in liver, FeCl3 induced venous thrombosis model vs warfarin (Example 11); details: for % inhibition of Factor 11 mRNA in liver relative to PBS control: FeCl3 VT model
Protocol: Two control groups of BALB/c mice were treated with PBS, administered subcutaneously twice a week for 3 weeks. Two days after the last dose of PBS, mice in both groups were anesthetized with 150 mg/kg ketamine mixed with 10 mg/kg xylazine administered by intraperitoneal injection. Thrombus formation was induced with FeCl3 in all groups of mice except the first control group.
as §1
RNA was extracted from liver tissue for real-time PCR analysis of Factor 11.

[3] = ISIS 404071 1.25 mg/kg subcutaneously twice a week for 3 weeks
[4] = ISIS 404071 5 mg/kg subcutaneously twice a week for 3 weeks
[5] = ISIS 404071 10 mg/kg subcutaneously twice a week for 3 weeks

ISIS 404071: antisense oligonucleotide targeted to murine Factor 11 mRNA, TGGTAATCCACTTTCAGAGG, target start site 869 (chemistry not given here)
Factor 11 mRNA in liver vs PBS control (Factor 11 mRNA [1]; FeCl3 induced VT model, ISIS 404071 1.25-40 mg/kg, Apixaban 0.5-5 mg/kg s.c. once): significant dose-dependent reduction of Factor 11 mRNA | % inhibition of Factor 11 mRNA in liver relative to PBS control (Factor 11 mRNA [1]; [3]): 15% | % inhibition of Factor 11 mRNA in liver relative to PBS control (Factor 11 mRNA [1]; [4]): 63% | % inhibition of Factor 11 mRNA in liver relative to PBS control (Factor 11 mRNA [1]; [5]): 76% | % inhibition of Factor 11 mRNA in liver relative to PBS control (Factor 11 mRNA [1]; ISIS 404071 25 mg/kg subcutaneously twice a week for 3 weeks): 91% | % inhibition of Factor 11 mRNA in liver relative to PBS control (Factor 11 mRNA [1]; ISIS 404071 50 mg/kg subcutaneously twice a week for 3 weeks): 95% | aPTT INR (blood coagulation; 12 hours after antidote/PBS): 1.51 INR | aPTT INR (blood coagulation; 1 day after antidote/PBS): 1.30 INR | aPTT INR (blood coagulation; 2 day after antidote/PBS): 1.35 INR | aPTT INR (blood coagulation; 3 day after antidote/PBS): 1.27 INR | aPTT INR (blood coagulation; 7 day after antidote/PBS): 1.18 INR | aPTT INR (blood coagulation; 14 day after antidote/PBS): 1.05 INR | Factor 11 mRNA in liver vs PBS control (Factor 11 mRNA [2]; FeCl3 induced VT model, ISIS 404071 1.25-40 mg/kg s.c. twice a week 3 weeks, warfarin 0.5-5 mg/kg daily 6 days): significant dose-dependent reduction of Factor 11 mRNA | % inhibition of Factor 11 mRNA in liver relative to PBS control (Factor 11 mRNA [2]; [3]): 0% | % inhibition of Factor 11 mRNA in liver relative to PBS control (Factor 11 mRNA [2]; [4]): 62% | % inhibition of Factor 11 mRNA in liver relative to PBS control (Factor 11 mRNA [2]; [5]): 78% | % inhibition of Factor 11 mRNA in liver relative to PBS control (Factor 11 mRNA [2]; ISIS 404071 20 mg/kg subcutaneously twice a week for 3 weeks): 92% | % inhibition of Factor 11 mRNA in liver relative to PBS control (Factor 11 mRNA [2]; ISIS 404071 40 mg/kg subcutaneously twice a week for 3 weeks): 96%
